Measured values reported in US11013726B2 (Arbutus Biopharma Corporation, priority 2016, dated 2021).

test system: HBsAg; assay: HBsAg assay; type: cell-based, hepatitis B virus; conditions: Hepatitis B virus, HepG2.2.15, 144 h, read-out: sAg EC50, μM, HepG2.2.15 cells, day 6
Protocol: Inhibition of HBsAg was determined in HepG2.2.15 cells. Cells were maintained in culture medium containing 10% fetal calf serum, […], Glutamine, penicillin/streptomycin. Cells were seeded in 96-well collagen-coated plate at a density of 30,000 cells/well. Serially diluted compounds were added to cells next day at the final DMSO concentration of 0.5%. Cells were incubated with compounds for 2-3 days, after which medium was removed. Fresh medium containing compounds was added to cells for additional 3-4 days. At day 6 after exposure of compounds, supernatant was collected, the HBsAg immunoassay (microplate-based chemiluminescence immunoassay kits, CLIA, Autobio Diagnosics Co., Zhengzhou, China, Catalog # CL0310-2) was used to determine the level of HBsAg according to manufactory instruction. Dose-response curves were generated and the EC50 value (effective concentrations that achieved 50% inhibitory effect) were determined using XLfit software. In addition, cells were seeded at a density of 5,000 cells/well for determination of cell viability in the presence and absence of compounds by using CellTiter-Glo reagent (Promega). Tables 1-3 show EC50 values obtained by the HBsAg assay for selected compounds.

| SMILES | EC50 [µM] |
| --- | --- |
| COc1cc2c(cc1Cl)-c1cc(=O)c(C(=O)O)cn1[C@H](C(C)C)CO2 (single isomer, unassigned) [Example 3] | 0.032 |
| COc1cc2c(cc1Cl)-c1cc(=O)c(C(=O)O)cn1[C@@H](C(C)C)CO2 (single isomer, unassigned) [Example 4] | 3.4 |
| COc1cc2c(cc1Cl)-c1cc(=O)c(C(=O)O)cn1[C@@H](CC(C)C)CO2 (single isomer, unassigned) [Example 6] | 3.8 |
| COc1cc2c(cc1Cl)-c1cc(=O)c(C(=O)O)cn1[C@H](CC(C)C)CO2 (single isomer, unassigned) [Example 7] | 0.61 |
| COCCCOc1cc2c(nc1OC)-c1cc(=O)c(C(=O)O)cn1[C@@H](C(C)C)C2 (single isomer, unassigned) [Example 21] | 0.53 |
| COCCOc1cc2c(cc1Cl)-c1cc(=O)c(C(=O)O)cn1[C@H](C(C)C)CO2 (single isomer, unassigned) [Example 30] | 0.053 |
| COCCOc1cc2c(cc1Cl)-c1cc(=O)c(C(=O)O)cn1[C@@H](C(C)C)CO2 (single isomer, unassigned) [Example 31] | 0.8 |
| COc1cc2c(cc1Cl)-c1cc(=O)c(C(=O)O)cn1C(CC(C)C)CO2 (stereo not drawn) [Example 5, 2-Chloro-7-isobutyl-3-methoxy-11-oxo-6,7-dihydro-11H-benzo[f]pyrido[1,2-d][1,4]oxazepine-10-carboxylic acid] | 0.91 |
| CCC1COc2cc(OC)c(Cl)cc2-c2cc(=O)c(C(=O)O)cn21 (stereo not drawn) [Example 8, 2-Chloro-7-ethyl-3-methoxy-11-oxo-6,7-dihydro-11H-benzo[f]pyrido[1,2-d][1,4]oxazepine-10-carboxylic acid] | 0.42 |
| COc1cc2c(cc1Cl)-c1cc(=O)c(C(=O)O)cn1C(CO)CO2 (stereo not drawn) [Example 9] | 8.6 |
| COc1cc2c(cc1Cl)-c1cc(=O)c(C(=O)O)cn1C(C1CCC1)CO2 (stereo not drawn) [Example 10, 2-Chloro-7-cyclobutyl-3-methoxy-11-oxo-6,7-dihydro-11H-benzo[f]pyrido[1,2-d][1,4]oxazepine-10-carboxylic acid] | 0.24 |
| COc1cc2c(cc1Cl)-c1cc(=O)c(C(=O)O)cn1C(COC(C)C)CO2 (stereo not drawn) [Example 11, 2-Chloro-7-(isopropoxymethyl)-3-methoxy-11-oxo-6,7-dihydro-11H-benzo[f]pyrido[1,2-d][1,4]oxazepine-10-carboxylic acid] | 12 |
| COc1cc2c(cc1Cl)-c1cc(=O)c(C(=O)O)cn1CC(C(C)(C)C)O2 (stereo not drawn) [Example 12, 6-(Tert-butyl)-2-chloro-3-methoxy-11-oxo-6,7-dihydro-11H-benzo[f]pyrido[1,2-d][1,4]oxazepine-10-carboxylic acid] | 47 |
| COc1cc2c(cc1Cl)-c1cc(=O)c(C(=O)O)cn1C1CCC1O2 (stereo not drawn) [Example 13, 11-Chloro-10-methoxy-2-oxo-5a,6,7,7a-tetrahydro-2H-benzo[f]cyclobuta[b]pyrido[1,2-d][1,4]oxazepine-3-carboxylic acid] | 1.8 |
| COc1cc2c(cc1Cl)-c1cc(=O)c(C(=O)O)cn1C1CCCC1O2 (stereo not drawn) [Example 14, 12-Chloro-11-methoxy-2-oxo-5a,7,8,8a-tetrahydro-2H,6H-benzo[f]cyclopenta[b]pyrido[1,2-d][1,4]oxazepine-3-carboxylic acid] | 0.56 |
| COc1cc2c(cc1F)-c1cc(=O)c(C(=O)O)cn1C(C(C)C)CO2 (stereo not drawn) [Example 15, 2-Fluoro-7-isopropyl-3-methoxy-11-oxo-6,7-dihydro-11H-benzo[f]pyrido[1,2-d][1,4]oxazepine-10-carboxylic acid] | 0.9 |
| COc1ccc2c(c1)OCC(C(C)C)n1cc(C(=O)O)c(=O)cc1-2 (stereo not drawn) [Example 16, 7-Isopropyl-3-methoxy-11-oxo-6,7-dihydro-11H-benzo[f]pyrido[1,2-d][1,4]oxazepine-10-carboxylic acid] | 3.5 |
| COc1ccc2c(c1)OC[C@@H](C(C)C)n1cc(C(=O)O)c(=O)cc1-2 [Example 17, (R)-7-Isopropyl-3-methoxy-11-oxo-6,7-dihydro-11H-benzo[f]pyrido[1,2-d][1,4]oxazepine-10-carboxylic acid] | 0.88 |
| COc1cc2c(cc1OC)-c1cc(=O)c(C(=O)O)cn1C(C(C)C)CC2 (stereo not drawn) [Example 19, 6-Isopropyl-10,11-dimethoxy-2-oxo-2,6,7,8-tetrahydrobenzo[c]pyrido[1,2-a]azepine-3-carboxylic acid] | 0.027 |

same assay, conditions: read-out: sAg EC50; HepG2.2.15 cells, day 6

| SMILES | EC50 [µM] |
| --- | --- |
| COc1cc2c(nc1OC)-c1cc(=O)c(C(=O)O)cn1C(C(C)C)C2 (single isomer, unassigned) [Example 24, 6-Isopropyl-2,3-dimethoxy-10-oxo-5,10-dihydro-6H-pyrido[1,2-h][1,7]naphthyridine-9-carboxylic acid] | 0.25 |
| COc1cc2c(nc1OC)-c1cc(=O)c(C(=O)O)cn1C(C(C)C)C2 (single isomer, unassigned) [Example 25, 6-Isopropyl-2,3-dimethoxy-10-oxo-5,10-dihydro-6H-pyrido[1,2-h][1,7]naphthyridine-9-carboxylic acid] | 0.007 |
| COCCCOc1cc2c(nc1Cl)-c1cc(=O)c(C(=O)O)cn1C1C(CCC1(C)C)O2 (single isomer, unassigned) [Example 82, 6-Chloro-7-(3-methoxypropoxy)-12,12-dimethyl-3-oxo-9a,11,12,12a-tetrahydro-3H,10H-cyclopenta[b]dipyrido[1,2-d:2′,3′-f][1,4]oxazepine-2-carboxylic acid] | 0.008 |
| COCCCOc1cc2c(nc1Cl)-c1cc(=O)c(C(=O)O)cn1C1C(CCC1(C)C)O2 (single isomer, unassigned) [Example 83, 6-Chloro-7-(3-methoxypropoxy)-12,12-dimethyl-3-oxo-9a,11,12,12a-tetrahydro-3H,10H-cyclopenta[b]dipyrido[1,2-d:2′,3′-f][1,4]oxazepine-2-carboxylic acid] | 1 |
| CC(C)(C)C1Cc2cc3c(cc2-c2cc(=O)c(C(=O)O)cn21)OCCCO3 (single isomer, unassigned) [Example 91, 6-(Tert-butyl)-2-oxo-6,7,11,12-tetrahydro-2H,10H-[1,4]dioxepino[2,3-g]pyrido[2,1-a]isoquinoline-3-carboxylic acid] | 0.94 |
| CC(C)(C)C1Cc2cc3c(cc2-c2cc(=O)c(C(=O)O)cn21)OCCCO3 (single isomer, unassigned) [Example 92, 6-(Tert-butyl)-2-oxo-6,7,11,12-tetrahydro-2H,10H-[1,4]dioxepino[2,3-g]pyrido[2,1-a]isoquinoline-3-carboxylic acid] | 0.011 |
| CC(C)(C)C1Cc2cc3c(cc2-c2cc(=O)c(C(=O)O)cn21)OCC1(COC1)CO3 (single isomer, unassigned) [Example 94, 6′-(Tert-butyl)-2′-oxo-6′,7′-dihydro-2′H,10′H,12′H-spiro[oxetane-3,11′-[1,4]dioxepino[2,3-g]pyrido[2,1-a]isoquinoline]-3′-carboxylic acid] | 2.2 |
| CC(C)(C)C1Cc2cc3c(cc2-c2cc(=O)c(C(=O)O)cn21)OCC1(COC1)CO3 (single isomer, unassigned) [Example 95, 6′-(Tert-butyl)-2′-oxo-6′,7′-dihydro-2′H,10′H,12′H-spiro[oxetane-3,11′-[1,4]dioxepino[2,3-g]pyrido[2,1-a]isoquinoline]-3′-carboxylic acid] | 0.08 |
| COCCCOc1cc2c(nc1OC)-c1cc(=O)c(C(=O)O)cn1C(C)(C(C)C)C2 (single isomer, unassigned) [Example 156, 6-Isopropyl-2-methoxy-3-(3-methoxypropoxy)-6-methyl-10-oxo-5,10-dihydro-6H-pyrido[1,2-h][1,7]naphthyridine-9-carboxylic acid] | 0.001 |
| COCCCOc1cc2c(nc1OC)-c1cc(=O)c(C(=O)O)cn1C(C)(C(C)C)C2 (single isomer, unassigned) [Example 157, 6-Isopropyl-2-methoxy-3-(3-methoxypropoxy)-6-methyl-10-oxo-5,10-dihydro-6H-pyrido[1,2-h][1,7]naphthyridine-9-carboxylic acid] | 0.11 |
| COCCCOc1cc2c(nc1OC)-c1cc(=O)c(C(=O)O)cn1C(C)(C(C)(C)C)C2 (single isomer, unassigned) [Example 159, 6-(Tert-butyl)-2-methoxy-3-(3-methoxypropoxy)-6-methyl-10-oxo-5,10-dihydro-6H-pyrido[1,2-h][1,7]naphthyridine-9-carboxylic acid] | 0.0009 |
| COCCCOc1cc2c(nc1OC)-c1cc(=O)c(C(=O)O)cn1C(C)(C(C)(C)C)C2 (single isomer, unassigned) [Example 160, 6-(Tert-butyl)-2-methoxy-3-(3-methoxypropoxy)-6-methyl-10-oxo-5,10-dihydro-6H-pyrido[1,2-h][1,7]naphthyridine-9-carboxylic acid] | 0.038 |
| COCCCOc1cc2c([nH]c1=O)-c1cc(=O)c(C(=O)O)cn1C(C(C)C)C2 (single isomer, unassigned) [Example 166, 6-Isopropyl-3-(3-methoxypropoxy)-2,10-dioxo-2,5,6,10-tetrahydro-1H-pyrido[1,2-h][1,7]naphthyridine-9-carboxylic acid] | 0.45 |
| COCCCOc1cc2c([nH]c1=O)-c1cc(=O)c(C(=O)O)cn1C(C(C)C)C2 (single isomer, unassigned) [Example 167, 6-Isopropyl-3-(3-methoxypropoxy)-2,10-dioxo-2,5,6,10-tetrahydro-1H-pyrido[1,2-h][1,7]naphthyridine-9-carboxylic acid] | 1 |
